Reference: US20220249710A1, “BIOREDUCTIVELY-ACTIVATED COMPOUNDS, THEIR PRODRUGS, RADIOPHARMACEUTICALS, THE COMPOSITIONS, AND THEIR APPLICATIONS IN MULTIMODAL THERANOSTIC MANAGEMENT OF HYPOXIA DISEASES INCLUDING CANCER” (The Governors of the University of Alberta, priority 2017, published 2022)

Tested on: FaDu tumor
Test: In vivo radiosensitization therapy of FaDu tumor-bearing NuNu mice
Conditions: bi-flank FaDu tumor-bearing NuNu mice, single chemical dose (20% of MTD) followed by single 10 Gy external beam radiotherapy
Description: In very brief, the evaluation of radiosensitization potential of IAZA using a single chemical dose (20% of the maximum tolerated dose; MTD) and a single radiation dose (10 Gy) was done in ‘bi-flank FaDu tumor-bearing NuNu mice was done. Benefits of IAZA-bestowed radiosensitization therapy effects were compared with the conventional radiotherapy alone (a single 10 Gy dose).
FIGS. 28 and 29 depict IN VIVO RADIOSENSITIZATION THERAPY OF FaDu TUMOR BEARING NU-NU MICE USING A SINGLE CHEMICAL DOSE OF IAZA (20% of MTD) AND 10 Gy RADIATION DOSE (Green stain indicates the hypoxic region in tumor)

[1] = compared with radiotherapy alone

SMILES: O=[N+]([O-])c1nccn1[C@@H]1O[C@H](C[125I])[C@@H](O)[C@@H]1O [IAZA]
- morbidity: no morbidity
- hypoxic content of the tumor [1]: Reduction in hypoxic content of the tumor
- tumor size [1]: tumor size reduction
